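How tested: cells in 96-well plates exposed to compound for 48 hours at five concentrations. The concentration for full growth arrest is given as TGI.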
Legend:
Assay in all cases: NCI tumour cell line growth inhibition, 48 h
[1] = test system: IGROV1 ovarian
[2] = test system: HCC-2998 colon
[3] = test system: SN12K1 renal
[4] = test system: HCT-116 colon
[5] = test system: P388 leukemia
[6] = test system: SK-MEL-2 melanoma
[7] = test system: RXF 393 renal
[8] = test system: SK-MEL-28 melanoma
[9] = test system: NCI-H522 lung
[10] = test system: SNB-78 CNS
[11] = test system: HOP-62 NSCLC
[12] = test system: XF 498 CNS
[13] = test system: SK-OV-3 ovarian
[14] = test system: MALME-3M melanoma
[15] = test system: NCI-H23 lung
[16] = test system: OVCAR-8 ovarian
[17] = test system: MCF7 breast
[18] = test system: DLD-1 colon
[19] = test system: OVCAR-3 ovarian
[20] = test system: HT29 colon
[21] = test system: UACC-62 melanoma
[22] = test system: SF-268 CNS
[23] = test system: M19-MEL melanoma
[24] = test system: K-562 leukemia
[25] = test system: HOP-18 NSCLC
[26] = test system: COLO 205 colon
[27] = test system: SNB-75 CNS
[28] = test system: UO-31 renal
[29] = test system: HL-60(TB) leukemia
[30] = test system: SNB-19 CNS
[31] = test system: OVCAR-4 ovarian
[32] = test system: OVCAR-5 ovarian
[33] = test system: DMS 273 small cell lung
[34] = test system: SN12C renal
[35] = test system: SK-MEL-5 melanoma
[36] = test system: SF-539 CNS
[37] = test system: RPMI-8226 leukemia
[38] = test system: MOLT-4 leukemia
[39] = test system: P388/ADR leukemia
[40] = test system: NCI-H226 lung
[41] = test system: A549 NSCLC
[42] = test system: CCRF-CEM leukemia
[43] = test system: U251 CNS
[44] = test system: NCI-H460 lung
[45] = test system: A498 renal
[46] = test system: KM12 colon
[47] = test system: DMS 114 small cell lung
[48] = test system: HOP-92 NSCLC
[49] = test system: SW-620 colon
[50] = test system: KM20L2 colon
[51] = test system: NCI/ADR-RES ovarian
[52] = test system: HCT-15 colon
[53] = test system: CAKI-1 renal
[54] = test system: EKVX NSCLC
[55] = test system: SF-295 CNS
[56] = test system: LOX IMVI melanoma
[57] = test system: UACC-257 melanoma

`O=C1NC(c2cccc3ccccc23)Nc2ccc(O)cc21` (configuration not stated) was tested, and the TGI [1] was 95.7 µM, the TGI [2] was 88.5 µM and the TGI [3] was 112 µM. For the same compound, the TGI [4] was 122 µM, the TGI [5] was 50.6 µM and the TGI [6] was 57.3 µM. For the same compound, the TGI [7] was 91.9 µM, the TGI [8] was greater than 150 µM and the TGI [9] was 92.3 µM. It also gave a TGI [10] greater than 150 µM, a TGI [11] of 121 µM and a TGI [12] of 59.2 µM. It also gave a TGI [13] of 115 µM, a TGI [14] of 69.5 µM and a TGI [15] greater than 132 µM. The TGI [16] was 111 µM, the TGI [17] was 102 µM and the TGI [18] was 134 µM. The TGI [19] was 58.5 µM, the TGI [20] was 121 µM and the TGI [21] was 78.5 µM. For the same compound, the TGI [22] was greater than 150 µM, the TGI [23] was 127 µM and the TGI [24] was greater than 94.6 µM. The TGI [25] was 131 µM, the TGI [26] was 67.4 µM and the TGI [27] was 106 µM. For the same compound, the TGI [28] was 78.5 µM, the TGI [29] was 35 µM and the TGI [30] was 150 µM. For the same compound, the TGI [31] was greater than 150 µM, the TGI [32] was 101 µM and the TGI [33] was 64.5 µM. It also gave a TGI [34] of 133 µM, a TGI [35] of 80.8 µM and a TGI [36] of 91.6 µM. The TGI [37] was 82.5 µM, the TGI [38] was 75.5 µM and the TGI [39] was 83.6 µM. For the same compound, the TGI [40] was 60 µM, the TGI [41] was greater than 139 µM and the TGI [42] was 111 µM. For the same compound, the TGI [43] was greater than 141 µM, the TGI [44] was 69.5 µM and the TGI [45] was 75.3 µM. The TGI [46] was 83.9 µM, the TGI [47] was 67.1 µM and the TGI [48] was 98.9 µM. It also gave a TGI [49] greater than 127 µM, a TGI [50] of 113 µM and a TGI [51] of 94.2 µM. It also gave a TGI [52] of 78.3 µM, a TGI [53] greater than 144 µM and a TGI [54] of 128 µM. For the same compound, the TGI [55] was 104 µM, the TGI [56] was greater than 75.7 µM and the TGI [57] was greater than 84.4 µM.

— PubChem BioAssay (NCI)
